Results from the NIST ThermoML archive (doi:10.1016/j.jct.2019.02.027).
Several values for one entry are separate records, joined by “and”; a condition that tells them apart may be missing. Equal entries are not always repeated.

Legend:
[1] = 298.15 K; 101.33 kPa; Liquid; Vibrating tube method
[2] = xn = mol fraction of the nth substance listed; details: 298.15 K, 100 kPa, Liquid, Vibrating tube method

O=Cc1ccco1 [2-furaldehyde]
Details	mass density [kg/m3]
[1]	1155.45

O=Cc1ccco1 [2-furaldehyde] + CC(C)O
[2]
Details	mass density [kg/m3]
x1 = 0.0534	803.11
x1 = 0.0877	817.2
x1 = 0.1839	856.01
x1 = 0.2041	864.12
x1 = 0.2517	882.87
x1 = 0.2794	893.74
x1 = 0.2855	896.16
x1 = 0.4063	942.61
x1 = 0.5153	983.56
x1 = 0.5364	991.32
x1 = 0.5702	1003.8
x1 = 0.6564	1035.2
x1 = 0.7345	1063.04
x1 = 0.8252	1094.94
x1 = 0.9055	1122.98
x1 = 1	1155.45

O=Cc1ccco1 [2-furaldehyde] + CCC(C)O
[2]
Details	mass density [kg/m3]
x1 = 0.0237	810.18
x1 = 0.0782	827.38
x1 = 0.1343	845.24
x1 = 0.1345	845.28
x1 = 0.2696	889.52
x1 = 0.2773	892.16
x1 = 0.417	939.59
x1 = 0.4498	951
x1 = 0.535	980.92
x1 = 0.6274	1014.08
x1 = 0.6673	1028.58
x1 = 0.7355	1053.74
x1 = 0.803	1079.08
x1 = 0.8794	1108.12
x1 = 1	1155.45

O=Cc1ccco1 [2-furaldehyde] + CCCC(C)O
Details	mass density [kg/m3]
[2], x1 = 1	1155.45

O=Cc1ccco1 [2-furaldehyde] + CCCCCCO
[2]
Details	mass density [kg/m3]
x1 = 0.0958	837.47
x1 = 0.1364	847.08
x1 = 0.1378	847.41
x1 = 0.2218	868.43
x1 = 0.2573	877.76
x1 = 0.2623	879.07
x1 = 0.2983	888.83
x1 = 0.3699	909.14
x1 = 0.4124	921.74
x1 = 0.4947	947.51
x1 = 0.4965	948.07
x1 = 0.5802	976.2
x1 = 0.6437	998.96
x1 = 0.7375	1035.07
x1 = 0.7661	1046.67
x1 = 0.7703	1048.36
x1 = 0.847	1081.45
x1 = 0.8939	1102.9
x1 = 1	1155.45

O=Cc1ccco1 [2-furaldehyde] + CCCCCO
[2]
Details	mass density [kg/m3]
x1 = 0.0837	833.12
x1 = 0.1212	843.42
x1 = 0.1906	863.01
x1 = 0.2617	883.85
x1 = 0.2997	895.29
x1 = 0.3856	922.11
x1 = 0.4254	934.98
x1 = 0.5075	962.35
x1 = 0.5396	973.38
x1 = 0.6236	1003.18
x1 = 0.708	1034.59
x1 = 0.7358	1045.18
x1 = 0.7671	1057.41
x1 = 0.8967	1110.25
x1 = 0.9015	1112.3
x1 = 1	1155.45

O=Cc1ccco1 [2-furaldehyde] + CCCO
[2]
Details	mass density [kg/m3]
x1 = 0.0847	834.01
x1 = 0.134	853.46
x1 = 0.2237	888
x1 = 0.2415	894.81
x1 = 0.2507	898.28
x1 = 0.2827	910.39
x1 = 0.3632	940.23
x1 = 0.4309	964.88
x1 = 0.5022	990.31
x1 = 0.6164	1030.13
x1 = 0.7194	1065
x1 = 0.7803	1085.14
x1 = 0.8714	1114.75
x1 = 0.9006	1124.2
x1 = 0.9038	1125.2
x1 = 1	1155.45

Cc1ccco1 [2-methylfuran]
Details	mass density [kg/m3]
[1]	910.73

Cc1ccco1 [2-methylfuran] + CC(C)O
[2]
Details	mass density [kg/m3]
x1 = 0.0267	785.02
x1 = 0.0493	788.28
x1 = 0.0908	794.29
x1 = 0.1257	799.31
x1 = 0.179	806.65
x1 = 0.2619	817.86
x1 = 0.2995	822.82
x1 = 0.3935	835.05
x1 = 0.537	853.23
x1 = 0.6047	861.52
x1 = 0.6784	870.65
x1 = 0.7217	876.04
x1 = 0.8122	886.89
x1 = 0.8256	888.45
x1 = 0.8759	894.66
x1 = 0.9472	903.47
x1 = 1	910.73

Cc1ccco1 [2-methylfuran] + CCC(C)O
[2]
Details	mass density [kg/m3]
x1 = 0.0549	808.11
x1 = 0.0656	809.45
x1 = 0.0952	812.22
x1 = 0.1847	821.08
x1 = 0.2954	831.67
x1 = 0.3763	839.84
x1 = 0.4673	849.03
x1 = 0.5696	859.9
x1 = 0.6998	873.97
x1 = 0.7611	881.06
x1 = 0.8132	887.16
x1 = 0.8548	891.9
x1 = 0.8832	895.12
x1 = 0.8998	897.35
x1 = 0.9091	898.45
x1 = 0.9333	901.44
x1 = 1	910.73

Cc1ccco1 [2-methylfuran] + CCCC(C)O
[2]
Details	mass density [kg/m3]
x1 = 0.0907	813.42
x1 = 0.1322	816.51
x1 = 0.1794	820.47
x1 = 0.2576	827.04
x1 = 0.3029	831.05
x1 = 0.4278	842.47
x1 = 0.4997	849.64
x1 = 0.6108	861.2
x1 = 0.6993	871.1
x1 = 0.7296	874.59
x1 = 0.8143	884.9
x1 = 0.8675	891.71
x1 = 0.9023	896.39
x1 = 0.9441	902.21
x1 = 1	910.73

Cc1ccco1 [2-methylfuran] + CCCCCCO
[2]
Details	mass density
x1 = 0.048	819.02 kg/m3
x1 = 0.0765	820.93 kg/m3
x1 = 0.1423	825.44 kg/m3
x1 = 0.2086	830.14 kg/m3
x1 = 0.2804	835.45 kg/m3
x1 = 0.3598	841.72 kg/m3
x1 = 0.4591	850.07 kg/m3
x1 = 0.4916	852.91 kg/m3
x1 = 0.5728	860.42 kg/m3
x1 = 0.6478	867.88 kg/m3
x1 = 0.7472	878.45 kg/m3 and 878.33 kg/m3
x1 = 0.7965	884.09 kg/m3
x1 = 0.8596	891.67 kg/m3
x1 = 0.888	895.23 kg/m3
x1 = 0.9411	902.08 kg/m3
x1 = 1	910.73 kg/m3

Cc1ccco1 [2-methylfuran] + CCCCCO
[2]
Details	mass density [kg/m3]
x1 = 0.1002	819.28
x1 = 0.1263	821.43
x1 = 0.1771	825.74
x1 = 0.22	829.43
x1 = 0.2723	834
x1 = 0.3399	840.06
x1 = 0.4257	848.01
x1 = 0.4599	851.26
x1 = 0.5134	856.49
x1 = 0.593	864.51
x1 = 0.6556	871.07
x1 = 0.7006	875.92
x1 = 0.7559	881.98
x1 = 0.8293	890.24
x1 = 0.8836	896.44
x1 = 1	910.73

CCC(C)O (configuration not stated) [butan-2-ol]
Details	mass density [kg/m3]
[1]	802.88

CCC(C)O (configuration not stated) [butan-2-ol] + Cc1ccco1
Details	mass density [kg/m3]
[2], x2 = 0	802.88

CCC(C)O (configuration not stated) [butan-2-ol] + O=Cc1ccco1
Details	mass density [kg/m3]
[2], x2 = 0	802.88

CCO [ethanol]
Details	mass density [kg/m3]
[1]	785.45

CCO [ethanol] + O
[2]
Details	mass density [kg/m3]
x1 = 0.0641	970.7
x1 = 0.127	952.3
x1 = 0.1461	950.1
x1 = 0.2437	920.1
x1 = 0.387	883.5
x1 = 0.4238	876.2
x1 = 0.7084	825.2
x1 = 1	785.5

CCCCCCO [hexan-1-ol]
Details	mass density [kg/m3]
[1]	815.9

CCCCCCO [hexan-1-ol] + Cc1ccco1
Details	mass density [kg/m3]
[2], x2 = 0	815.9

CCCCCCO [hexan-1-ol] + O=Cc1ccco1
Details	mass density [kg/m3]
[2], x2 = 0	815.9

CCCCCO [pentan-1-ol]
Details	mass density [kg/m3]
[1]	810.9

CCCCCO [pentan-1-ol] + Cc1ccco1
Details	mass density [kg/m3]
[2], x2 = 0	810.9

CCCCCO [pentan-1-ol] + O=Cc1ccco1
Details	mass density [kg/m3]
[2], x2 = 0	810.9

CCCC(C)O (configuration not stated) [pentan-2-ol]
Details	mass density [kg/m3]
[1]	806.48

CCCC(C)O (configuration not stated) [pentan-2-ol] + Cc1ccco1
Details	mass density [kg/m3]
[2], x2 = 0	806.48

CCCC(C)O (configuration not stated) [pentan-2-ol] + O=Cc1ccco1
[2]
Details	mass density [kg/m3]
x2 = 0	806.48
x2 = 0.092	831.24
x2 = 0.1912	859.17
x2 = 0.2652	880.87
x2 = 0.3627	910.83
x2 = 0.4245	930.64
x2 = 0.4984	955.28
x2 = 0.5417	970.2
x2 = 0.6211	998.57
x2 = 0.6746	1018.53
x2 = 0.7117	1032.71
x2 = 0.7692	1055.38
x2 = 0.8249	1078.15
x2 = 0.879	1101.1
x2 = 0.9111	1115.13
x2 = 0.9542	1134.34

CCCO [propan-1-ol]
Details	mass density [kg/m3]
[1]	799.97

CCCO [propan-1-ol] + O=Cc1ccco1
Details	mass density [kg/m3]
[2], x2 = 0	799.97

CC(C)O [propan-2-ol]
Details	mass density [kg/m3]
[1]	780.95

CC(C)O [propan-2-ol] + Cc1ccco1
Details	mass density [kg/m3]
[2], x2 = 0	780.95

CC(C)O [propan-2-ol] + O=Cc1ccco1
Details	mass density [kg/m3]
[2], x2 = 0	780.95
